Legend:
[1] = system: patients with cancer-related psychiatric and existential distress; test: Functional Assessment of Chronic Illness Therapy-Spiritual Well-Being (FACIT-Sp-12), long-term follow-up; type: in vivo, human; details: for Faith / Meaning/peace / Spiritual well-being: single 0.3 mg/kg dose with psychotherapy; for Faith: baseline 6.75; for Meaning/peace: baseline 19.43; for Spiritual well-being: baseline 55.69
Procedure: (§1) The present example assesses the long-term effects of a single dose of psilocybin (0.3 mg/kg) in conjunction with psychotherapy in patients with cancer-related psychiatric and existential distress.
(§2) 29 participants were randomly assigned to one of two groups: psilocybin (0.3 mg/kg) on the first medication session followed by niacin (250 mg) on the second session (i.e. psilocybin-first group), or niacin (250 mg) on the first medication session followed by psilocybin (0.3 mg/kg) on the second session (i.e. niacin-first group). Psilocybin and niacin were administered in identically appearing gelatin capsules.
(§3) Participants received three 2-hour preparatory psychotherapy sessions in order to review the purpose and intention of participation in the study, treatment goals, and structure of the treatment sessions. Medications were administered in 8-hour treatment sessions which included a discussion of the participant's subjective experience with the treatment team to consolidate the memory of the experience and to begin the process of post-integrative psychotherapy. Participants also received three 2-hour post-medication integration sessions (repeated after the second dosing session) to further consolidate the memory of the experience and to continue the process of psychological integration. All psychotherapy treatment sessions were delivered by a dyadic therapy team trained in a blend of psychotherapies with an evidence base to support their use in cancer patients (drawing upon principles of palliative care therapy, existential psychotherapy, cognitive-behavioural therapy, psychoanalysis therapy, and transpersonal psychology) and were taught about the safety and clinical pharmacology of psilocybin. Each therapy dyad underwent six confidential one-to-one sessions to build their alliance and exchange ideas about psychedelic therapy. The trial employed a crossover design at seven weeks following the first drug administration, with an outcome assessment at 6.5 months (26 weeks) following the second drug administration (i.e. after the crossover).
(§4) Two long-term follow ups (LTFUs) were carried out to assess the continued effect of psilocybin. Of the original 29 participants, all 16 participants who were not deceased at the time of LTFU were contacted (the remaining 13 participants were deceased). Of the 16 participants who were contacted, 15 agreed to participate in the LTFU and completed measures through a secure online portal. One participant died (from cancer-related complications) after completing the first LTFU and prior to the second LTFU, leaving us with 14 participants at the second LTFU. The first and second LTFUs occurred on average 3.2 years (range 2.3-4.5 years) and 4.5 years (range 3.5-5.5 years) following the participants' psilocybin dosing date, respectively.
Spirituality was assessed using the Functional Assessment of Chronic Illness Therapy-Spiritual Well-Being (FACIT-Sp-12; Bredle et al., 2011). This is a 12-item measure of spiritual well-being among individuals with cancer and other forms of chronic illness. Items are rated on a five-point Likert scale. The measure yields three subscales: a sense of meaning/peace in life, a sense of comfort from one's faith, and total spiritual well-being score. Total scores for each subscale range from 0-32, 0-16, and 0-48, respectively. Data have not been published regarding recommended cutoff scores for this measure. This measure has shown good reliability (Cronbach's a ranging from 0.81-0.88) and has been well validated (Bredle et al. 2011).
Regarding all analyses for both the primary and secondary outcome assessments, both the psilocybin-first and niacin-first dose sequence groups were collapsed and combined into one group. Reasons for this decision included the crossover design, which prevented valid between-group comparisons subsequent to the crossover, and a need to increase power given the modest sample size. […]

[2] = system: patients with cancer-related psychiatric and existential distress; test: Secondary questionnaire domains (social relationships, environmental, physical, psychological health), long-term follow-up; type: in vivo, human; details: single 0.3 mg/kg dose with psychotherapy; for Psychological health: baseline 13.58; for Social relationships: baseline 13.91; for Physical health: baseline 15.00; for Environmental health: baseline 15.50
Procedure: as §1, §2, §3, §4
Regarding all analyses for both the primary and secondary outcome assessments, both the psilocybin-first and niacin-first dose sequence groups were collapsed and combined into one group. Reasons for this decision included the crossover design, which prevented valid between-group comparisons subsequent to the crossover, and a need to increase power given the modest sample size.
The long-terms effects of psilocybin on variables of interest were evaluated using four repeated measures regressions, estimated within the mixed effect repeated measurement (MMRM) model. Planned within-subject t-tests (Tukey's post-hoc) were conducted comparing scores at baseline to the following time points for primary and secondary outcomes: 6.5 months after the second medication session, and the first and second LTFU points. Planned within subject t-tests were also conducted comparing scores at parent study endpoint (6.5 months) to the two LTFU points.

[3] = system: patients with life-threatening cancer; details: 6-month follow up; cited from earlier work
[4] = system: patients with advanced-stage cancer; details: single moderate dose 0.2 mg/kg; cited from earlier work
[5] = mean score at 3.2 years, p < 0.05 vs baseline
[6] = mean score at 4.5 years, p < 0.05 vs baseline
[7] = mean score at 6.5-8 months, p < 0.001 vs baseline
[8] = mean score at 6.5-8 months, p < 0.05 vs baseline

For `CN(C)CCc1c[nH]c2cccc(OP(=O)(O)O)c12` [psilocybin, [3-(2-dimethylaminoethyl)-1H-indol-4-yl] dihydrogen phosphate], the Faith [1, 5] was 9.31, the Meaning/peace ([1]; mean score at 3.2 years) was 19.27 and the Spiritual well-being ([1]; mean score at 3.2 years) was 59.85. It also gave a Faith ([1]; mean score at 4.5 years, p < 0.01 vs baseline) of 10.43, a Meaning/peace ([1]; mean score at 4.5 years) of 20.20 and a Spiritual well-being [1, 6] of 65.04. The Faith ([1]; mean score at 6.5-8 months, p < 0.01 vs baseline) was 9.77, the Meaning/peace [1, 7] was 26.34 and the Spiritual well-being [1, 7] was 70.58. The “spiritual well-being and faith domains (FACIT-Sp-12) relative to baseline” value ([1]; second LTFU) was “significant improvements”, the Psychological health ([2]; mean score at 3.2 years, p < 0.01 vs baseline) was 15.48 and the Social relationships ([2]; mean score at 3.2 years) was 15.54. It also gave a Physical health ([2]; mean score at 3.2 years) of 16.33, an Environmental health [2, 5] of 16.72 and a Psychological health ([2]; mean score at 4.5 years) of 14.80. For the same compound, the Social relationships ([2]; mean score at 4.5 years) was 14.67, the Physical health ([2]; mean score at 4.5 years) was 13.89 and the Environmental health [2, 6] was 17.00. It also gave a Psychological health [2, 7] of 15.70, a Social relationships ([2]; mean score at 6.5-8 months) of 15.27 and a Physical health [2, 8] of 16.35. For the same compound, the Environmental health [2, 8] was 16.54, the “participants continuing to show decreases in depressed mood and anxiety” value [3] was “about 80%” and the adverse events [4] was “no clinically significant adverse events”. The “time after treatment up to which levels of anxiety were reduced” value [4] was “up to 3 months” and the “time after treatment up to which levels of depression were reduced” value [4] was “up to 6 months”.

Source: patent US20220151993A1, “TREATMENT OF ANXIETY AND DEPRESSION” (NEW YORK UNIVERSITY, priority 2020, published 2022)
